Patent US20150344444A1, “BET-PROTEIN-INHIBITING DIHYDROXYQUINOXALINONES” (BAYER PHARMA AKTIENGESELLSCHAFT, priority 2012, published 2015)
pIC50: −log10 of the molar value.

Columns and labels:
MOLM-13 cells = assay: MOLM-13 cell proliferation assay (alamarBlue); type: cell-based; details: inhibition of cell proliferation, 96 hours, human AML cell line
Description: (§1) In accordance with the invention, the ability of the substances to inhibit cell proliferation was determined Cell viability was determined by means of the alamarBlue® reagent (Invitrogen) in a Victor X3 Multilabel Reader (Perkin Elmer). The excitation wavelength was 530 nm and the emission wavelength […].
The MOLM-13 cells (DSMZ, ACC 554) were sown at a concentration of 4000 cells/well in 100 μl of growth medium (RPMI1640, 10% FCS) on 96-well microtitre plates.
(§2) After overnight incubation at 37° C., the fluorescence values were determined (CI values). Then the plates were treated with various substance dilutions (1E-5 M, 3E-6 M, 1E-6 M, 3E-7 M, 1E-7 M, 3E-8 M, 1E-8 M) and incubated at 37° C. over 96 hours (MOLM-13, B16F10 cells) or 120 hours (MOLP-8 cells). Subsequently, the fluorescence values were determined (CO values). For the data analysis, the CI values were subtracted from the CO values and the results were compared between cells which had been treated with various dilutions of the substance or only with buffer solution. The IC50 values (substance concentration needed for 50% inhibition of cell proliferation) were calculated therefrom.
MOLM-13 human AML (acute myeloid leukaemia) cell line

[1] = biological target: T1, BRD4 Bromo Domain 1 [BRD4(1)] (Homo sapiens, UniProt O60885); assay: BRD4(1)/acetylated peptide H4 binding assay (TR-FRET); details: inhibition of interaction between His6-tagged BRD4(1) (amino acids 67-152) and acetylated histone H4 peptide
T1 construct: N-terminally His6-tagged BRD4(1) (amino acids 67-152); made in house; host or cells: E. coli
Text: Protein-Protein Interaction Assay: BRD4/Acetylated Peptide H4 Binding Assay
1. Assay Description for BRD4 Bromo Domain 1 [BRD4(1)]
To assess the BRD4(1) binding strength of the substances described in this application, the ability thereof to inhibit the interaction between BRD4(1) and acetylated histone H4 in a dose-dependent manner was quantified.
For this purpose, a time-resolved fluorescence resonance energy transfer (TR-FRET) assay was used, which measures the binding between N-terminally His6-tagged BRD4(1) (amino acids 67-152) and a synthetic acetylated histone H4 (Ac-H4) peptide with sequence GRGK(Ac)GGK(Ac)GLGK(Ac)GGAK(Ac)RHGSGSK-biotin. The recombinant BRD4(1) protein produced in house according to Filippakopoulos et al., Cell, 2012, 149:214-231 was expressed in E. coli and purified by means of (Ni-NTA) affinity and (Sephadex G-75) size exclusion chromatography. The Ac-H4 peptide can be purchased, for example, from Biosyntan (Berlin, Germany).
In the assay, typically 11 different concentrations of each substance (0.1 nM, 0.33 nM, 1.1 nM, 3.8 nM, 13 nM, 44 nM, 0.15 μM, 0.51 μM, 1.7 μM, 5.9 μM and 20 μM) were analysed as duplicates on the same microtitre plate. For this purpose, 100-fold concentrated solutions in DMSO were prepared by serial dilutions (1:3.4) of a 2 mM stock solution into a clear, 384-well microtitre plate (Greiner Bio-One, Frickenhausen, Germany). From this, 50 nl were transferred into a black test plate (Greiner Bio-One, Frickenhausen, Germany). The test was started by the addition of 2 μl of a 2.5-fold concentrated BRD4(1) solution (final concentration typically 10 nM in the 5 μl of reaction volume) in aqueous assay buffer [50 mM HEPES pH 7.5, 50 mM sodium chloride (NaCl), 0.25 mM CHAPS and 0.05% serum albumin (BSA)] to the substances in the test plate. This was followed by a 10-minute incubation step at 22° C. for the pre-equilibration of putative complexes between BRD4(1) and the substances.
The mixture was then incubated in the dark at 22° C. for one hour and then at 4° C. for at least 3 hours and for no longer than overnight. The formation of BRD4(1)/Ac-H4 complexes was determined by the measurement of the resonance energy transfer from the streptavidin-Eu cryptate to the anti-6His-XL665 antibody present in the reaction. For this purpose, the fluorescence emission was measured at 620 nm and 665 nm after excitation at 330-350 nm in a TR-FRET measuring instrument, for example a Rubystar or Pherastar (both from BMG Lab Technologies, Offenburg, Germany) or a Viewlux (Perkin-Elmer). The ratio of the emissions at 665 nm and at 622 nm was taken as an indicator of the amount of BRD4(1)/Ac-H4 complexes formed.
The data (ratios) obtained were normalized, with 0% inhibition corresponding to the mean from the measurements for a set of controls (typically 32 data points) in which all the reagents were present. In these, in place of test substances, 50 nl of DMSO (100%) were used Inhibition of 100% corresponded to the mean from the measurements for a set of controls (typically 32 data points) in which all the reagents except BRD4(1) were present. The IC50 was determined by regression analysis based on a 4-parameter equation (minimum, maximum, IC50, Hill; Y=max+(min−max)/(1+(X/IC50)Hill).

MOLP-8 cells = assay: MOLP-8 cell proliferation assay (alamarBlue); type: cell-based; details: inhibition of cell proliferation, 120 hours, human multiple myeloma cell line
Description: as §1
The MOLP-8 cells (DSMZ, ACC 569) were sown at a concentration of 4000 cells/well in 100 μl of growth medium (RPMI1640, 20% FCS) on 96-well microtitre plates.
as §2
MOLP-8 human multiple myeloma cell line

pIC50 (MOLM-13 cells)	pIC50 [1]	Compound	pIC50 (MOLP-8 cells)
5.55	5.98	C[C@@H]1C(=O)N(C)c2ccc(Nc3ccc(C(=O)NC4CCN(C)CC4)cc3)cc2N1Cc1c(F)cccc1F (stereo in doubt) [Example 39, 4-{[4-(2,6-difluorobenzyl)-1,3-dimethyl-2-oxo-1,2,3,4-tetrahydroquinoxalin-6-yl]amino}-N-(1-methylpiperidin-4-yl)benzamide]	5.76
< 5.00	5.89	C[C@@H]1C(=O)N(C)c2ccc(Nc3ccc(C(=O)NC4CCC(N5CCN(CC6CC6)CC5)CC4)cc3)cc2N1Cc1c(F)cccc1F (stereo in doubt) [Example 40, N-{4-[4-(cyclopropylmethyl)piperazin-1-yl]cyclohexyl}-4-{[4-(2,6-difluorobenzyl)-1,3-dimethyl-2-oxo-1,2,3,4-tetrahydroquinoxalin-6-yl]amino}benzamide]	5.18
5.94	6.76	C[C@@H]1C(=O)N(C)c2ccc(Nc3ccc(C(=O)NC4CCCC4)cc3)cc2N1C1CCCC1 [Example 1, N-cyclopentyl-4-{[(3R)-4-cyclopentyl-1,3-dimethyl-2-oxo-1,2,3,4-tetrahydroquinoxalin-6-yl]amino}benzamide]	5.83
6.09	6.84	C[C@@H]1C(=O)N(C)c2ccc(Nc3ccc(C(=O)NC4CC4)cc3)cc2N1C1CCCC1 [Example 2, 4-{[(3R)-4-cyclopentyl-1,3-dimethyl-2-oxo-1,2,3,4-tetrahydroquinoxalin-6-yl]amino}-N-cyclopropylbenzamide]	6.14
6.54	7.20	C[C@@H]1C(=O)N(C)c2ccc(Nc3ccc(S(=O)(=O)N(C)C)cc3)cc2N1C1CCCC1 [Example 3, 4-{[(3R)-4-cyclopentyl-1,3-dimethyl-2-oxo-1,2,3,4-tetrahydroquinoxalin-6-yl]amino}-N,N-dimethylbenzenesulphonamide]	6.52
6.16	7.13	C[C@@H]1C(=O)N(C)c2ccc(Nc3ccc(C(=O)N4CCOCC4)cc3)cc2N1C1CCCC1 [Example 6, (3R)-4-cyclopentyl-1,3-dimethyl-6-{[4-(morpholin-4-ylcarbonyl)phenyl]amino}-3,4-dihydroquinoxalin-2(1H)-one]	6.57
5.84	6.78	CC(C)NC(=O)c1ccc(Nc2ccc3c(c2)N(C2CCCC2)[C@H](C)C(=O)N3C)cc1 [Example 7, 4-{[(3R)-4-cyclopentyl-1,3-dimethyl-2-oxo-1,2,3,4-tetrahydroquinoxalin-6-yl]amino}-N-isopropylbenzamide]	6.20
6.20	7.01	C[C@@H]1C(=O)N(C)c2ccc(Nc3ccc(C(=O)N(C)C)cc3)cc2N1C1CCCC1 [Example 8, 4-{[(3R)-4-cyclopentyl-1,3-dimethyl-2-oxo-1,2,3,4-tetrahydroquinoxalin-6-yl]amino}-N,N-dimethylbenzamide]	6.28
6.44	6.60	C[C@@H]1C(=O)N(C)c2ccc(Nc3ccc(C(=O)NCC4COC4)cc3)cc2N1Cc1ccccc1 [Example 9, 4-{[(3R)-4-benzyl-1,3-dimethyl-2-oxo-1,2,3,4-tetrahydroquinoxalin-6-yl]amino}-N-(oxetan-3-ylmethyl)benzamide]	6.86
6.28	6.51	C[C@@H]1C(=O)N(C)c2ccc(Nc3ccc(C(=O)NC4CC4)cc3)cc2N1Cc1ccccc1 [Example 10, 4-{[(3R)-4-benzyl-1,3-dimethyl-2-oxo-1,2,3,4-tetrahydroquinoxalin-6-yl]amino}-N-cyclopropylbenzamide]	6.59
6.44	6.62	C[C@@H]1C(=O)N(C)c2ccc(Nc3ccc(C(=O)NC4CCN(C)CC4)cc3)cc2N1Cc1ccccc1 [Example 11, 4-{[(3R)-4-benzyl-1,3-dimethyl-2-oxo-1,2,3,4-tetrahydroquinoxalin-6-yl]amino}-N-(1-methylpiperidin-4-yl)benzamide]	6.99
6.52	6.81	C[C@@H]1C(=O)N(C)c2ccc(Nc3ccc(C(=O)N4CCOCC4)cc3)cc2N1Cc1ccccc1 [Example 12, (3R)-4-benzyl-1,3-dimethyl-6-{[4-(morpholin-4-ylcarbonyl)phenyl]amino}-3,4-dihydroquinoxalin-2(1H)-one]	7.01
6.65	6.77	C[C@@H]1C(=O)N(C)c2ccc(Nc3ccc(S(=O)(=O)N4CCOCC4)cc3)cc2N1Cc1ccccc1 [Example 13, (3R)-4-benzyl-1,3-dimethyl-6-{[4-(morpholin-4-ylsulphonyl)phenyl]amino}-3,4-dihydroquinoxalin-2(1H)-one]	7.01
6.63	6.55	C[C@@H]1C(=O)N(C)c2ccc(Nc3ccc(S(=O)(=O)N(C)C)cc3)cc2N1Cc1ccccc1 [Example 14, 4-{[(3R)-4-benzyl-1,3-dimethyl-2-oxo-1,2,3,4-tetrahydroquinoxalin-6-yl]amino}-N,N-dimethylbenzenesulphonamide]	6.94
7.05	6.89	C[C@@H]1C(=O)N(C)c2ccc(Nc3ccc(S(=O)(=O)N4CCN(C)CC4)cc3)cc2N1Cc1ccccc1 [Example 15, (3R)-4-benzyl-1,3-dimethyl-6-({4-[(4-methylpiperazin-1-yl)sulphonyl]phenyl}amino)-3,4-dihydroquinoxalin-2(1H)-one]	6.96
6.43	6.59	C[C@@H]1C(=O)N(C)c2ccc(Nc3ccc(C(=O)N4CC5(CCS5(=O)=O)C4)cc3)cc2N1Cc1ccccc1 [Example 16, (3R)-4-benzyl-6-({4-[(1,1-dioxido-1-thia-6-azaspiro[3.3]hept-6-yl)carbonyl]phenyl}amino)-1,3-dimethyl-3,4-dihydroquinoxalin-2(1H)-one]	7.02
6.50	6.94	COc1ccc(CN2c3cc(Nc4ccc(C(=O)NC5CCN(C)CC5)cc4)ccc3N(C)C(=O)[C@H]2C)cc1 [Example 17, 4-{[(3R)-4-(4-methoxybenzyl)-1,3-dimethyl-2-oxo-1,2,3,4-tetrahydroquinoxalin-6-yl]amino}-N-(1-methylpiperidin-4-yl)benzamide]	7.16
6.59	6.72	COc1ccc(CN2c3cc(Nc4ccc(C(=O)N5CCOCC5)cc4)ccc3N(C)C(=O)[C@H]2C)cc1 [Example 18, (3R)-4-(4-methoxybenzyl)-1,3-dimethyl-6-{[4-(morpholin-4-ylcarbonyl)phenyl]amino}-3,4-dihydroquinoxalin-2(1H)-one]	6.83
